Data: ChEMBL document CHEMBL3507680, “University of Dundee, Gates Library screen for HepG2 cell viability”

Experiment: Human HepG2 cell viability assay in 384 well format
Format: toxicity, cell-based
Parameters: dose 125 nL, time 70.5 hour; cytotoxicity at 70.5 h: concentration not given beside the values
Conditions: HepG2 cells, read-out: Inhibition

| SMILES | cytotoxicity at 70.5 h [%] |
| --- | --- |
| c1ncn(CC2CN(Cc3nc(-c4ccsc4)no3)CCO2)n1 (stereo unspecified) | -6.98 |
| OC(COCc1ccccc1)CN1CC(n2cccn2)C1 (stereo unspecified) | -3.54 |
| Cc1nc(CN2CCN(C(=O)NC(C)c3cccnc3)CC2)cs1 (stereo unspecified) | 30.6 |
| OC(COCc1ccc(Cl)cc1)CN1CC(n2cccn2)C1 (stereo unspecified) | -2.28 |
| Cc1nc(C)n(CC2CCCN2Cc2nc(-c3ccccn3)no2)n1 (stereo unspecified) | -7.25 |
| CC(=O)NC(CC(=O)Nc1ccc(C)cn1)c1ccccc1 (stereo unspecified) | -6.79 |
| Cc1cc(CN2CCN(C(=O)NC(C)c3cccs3)CC2)on1 (stereo unspecified) | -5.41 |
| Cc1cc(CN2CCN(C(=O)NC(C)c3ccncc3)CC2)on1 (stereo unspecified) | -9.79 |
| Cc1cc(CN2CCN(C(=O)NC(C)c3ccc(C)o3)CC2)on1 (stereo unspecified) | -9.49 |
| Cc1cc2n(n1)CC(CNCc1ccccc1-n1cccn1)CN2 (stereo unspecified) | -4.8 |
| COC(=O)c1cc(C(=O)N2CCC(OC)CC2)n(-c2ccccc2)n1 | -2.53 |
| O=C(c1ccc(-n2cccn2)nc1)N1CCCC(n2cccn2)C1 (stereo unspecified) | -7.62 |
| Cc1ccc(-c2noc(CN3CCOC(Cn4cccn4)C3)n2)cc1 (stereo unspecified) | -3.88 |
| Cc1ccccc1-c1noc(CN2CCOC(Cn3cccn3)C2)n1 (stereo unspecified) | -10.3 |
| CCc1nnc2n1CCN(Cc1ncc(-c3ccc(F)cc3)o1)C2 | -6.74 |
| Cc1cnn(CC2CCCN2C(=O)CCc2cscn2)c1 (stereo unspecified) | -13.6 |
| CCc1nnc2n1CCN(Cc1ncc(-c3ccccc3)o1)C2 | -13.5 |
| CC(C(=O)NCc1ccnc(N2CCCCCC2)c1)n1cccn1 (stereo unspecified) | 17.8 |
| Cc1ccc(CNC2CCCN(Cc3noc(C4CC4)n3)C2)s1 (stereo unspecified) | 28.4 |
| Cc1cnn(CCNCc2nc(CNC(=O)c3ccccc3)no2)c1 | 22.6 |
| CCc1nc(CN2CCCC(NCc3cnc(C)s3)C2)no1 (stereo unspecified) | 22.5 |
| Cc1noc(CNC2CCCN(Cc3noc(C4CC4)n3)C2)n1 (stereo unspecified) | -2.29 |
| Cc1cc(CNC2CCCN(Cc3noc(C4CC4)n3)C2)on1 (stereo unspecified) | 23.9 |
| CC(C)c1nc2c(n1C)CCN(Cc1cccc(OCC(N)=O)c1)C2 | 0.112 |

| SMILES | cytotoxicity at 70.5 h [%] |
| --- | --- |
| Cc1ccsc1CNC1CCCN(Cc2noc(C3CC3)n2)C1 (stereo unspecified) | -2.45 |
| CCc1ccc(C(=O)N2CCN(CCO)CC2)o1 | -1.18 |
| O=C(c1cc2c(s1)CCC2)N1CCCC1c1noc(C2CC2)n1 (stereo unspecified) | -0.753 |
| c1coc(-c2nc(CNCCn3cccn3)cs2)c1 | -5.85 |
| CCc1nc(C2CCCN2CC(=O)N2CCc3ccccc32)no1 (stereo unspecified) | -5.32 |
| c1csc(-c2nc(CNCCn3cccn3)cs2)c1 | -7.37 |
| O=C(c1ccc2c(c1)CCO2)N1CCN(c2cnccn2)CC1 | -5.33 |
| O=C(Cc1ccc2c(c1)CCC2)N1CCN(c2cnccn2)CC1 | 2.45 |
| CCOc1ccccc1OC1CCN(C(=O)c2cnsn2)CC1 | -1.79 |
| Cc1cc(C)c(CNC(=O)Cc2ccc3c(c2)CCCC3)c(=O)[nH]1 | -7.45 |
| Cc1cc(C)c(CNC(=O)NC(C)c2ccc3c(c2)CCC3)c(=O)[nH]1 (stereo unspecified) | 25.3 |
| Cc1cc(C)c(CNC(=O)NCc2ccc3c(c2)OCCO3)c(=O)[nH]1 | 0.304 |
| CCn1ccnc1CN1CCN(Cc2cccc(C#N)c2)CC1 | 21.4 |
| Cc1ccc(O)c(CNC2CCCN(Cc3noc(C4CC4)n3)C2)n1 (stereo unspecified) | -4.57 |
| CC(C)c1nc(C2CCCN(C(=O)Cn3ccccc3=O)C2)no1 (stereo unspecified) | -1.03 |
| CC(C)Oc1ncccc1CNC(=O)N1CCC1 | -7.74 |
| N#CC1(C(=O)N2CCCN(Cc3cscn3)CC2)CCCCC1 | 0.606 |
| CCc1nc2n(n1)CC(NCC(=O)Nc1cc(C(C)(C)C)no1)CC2 (stereo unspecified) | -0.0913 |
| CCc1ccc(C(C)NC(=O)N2CCC(n3cncn3)CC2)cc1 (stereo unspecified) | -8.05 |
| Cn1cc(C2CCCN2C(=O)CCCc2cccs2)cn1 (stereo unspecified) | -12.4 |
| CC(C)c1noc(CCCC(=O)N2CCN(S(C)(=O)=O)CC2)n1 | -5.72 |
| CC(C)c1noc(CCC(=O)N2CCN(Cc3ccncc3)CC2)n1 | -7.35 |
| Cc1cc(CN(C)C(=O)c2cccc(N3CCCS3(=O)=O)c2)no1 | -12.6 |
| CC(Cn1ccnc1)NC(=O)C1(c2ccc(F)cc2)CCCC1 (stereo unspecified) | -7.69 |

| SMILES | cytotoxicity at 70.5 h [%] |
| --- | --- |
| Cc1cc(CN2CCN(C(=O)CCCc3nc(C(C)C)no3)CC2)on1 | -8.77 |
| Cn1cc(NS(=O)(=O)c2ccc(F)c(F)c2)ccc1=O | -7.99 |
| Cn1ncc2c(=O)[nH]c(CN3CCCC3c3ccccc3Cl)nc21 (stereo unspecified) | -8.75 |
| Cn1ncc2c(=O)[nH]c(CN3CCc4ccccc4C3)nc21 | -15.9 |
| COC(=O)c1ccc(N2CCN(C(=O)c3ccc(O)nc3)C(C)C2)cc1 (stereo unspecified) | -7.53 |
| COC(=O)c1ccc(N2CCN(C(=O)c3cnccn3)C(C)C2)cc1 (stereo unspecified) | -6.45 |
| N#CC1(C(=O)N2CCN(Cc3cscn3)CC2)CCCCC1 | -4.74 |
| CCc1nc(CN2CCN(C(=O)C3(C#N)CCCCC3)CC2)cs1 | -0.0355 |
| Cc1nc(CN2CCCC(NCc3cccc(C(N)=O)c3)C2)no1 (stereo unspecified) | -3.45 |
| Cc1ccc(C)c(C(C)NC(=O)N2CCC(n3cncn3)CC2)c1 (stereo unspecified) | -3.74 |
| Cn1cc(C2CCCN2C(=O)CCCc2ccccn2)cn1 (stereo unspecified) | -7.85 |
| Cc1cc(NC(=O)CNC2CCc3nc(C(C)C)nn3C2)no1 (stereo unspecified) | -6.53 |
| CCc1nc(CN2CCCC(NCc3cccc(C(N)=O)c3)C2)no1 (stereo unspecified) | -6.52 |
| CNS(=O)(=O)c1ccc(C(=O)NCCc2ccccn2)cc1 | -10.7 |
| CCCNC(=O)N1CCN(Cc2cc(C)no2)CC1 | -8.29 |
| O=C(CN1C=Nc2ccccc2S1(=O)=O)NCCc1cccs1 | 1.55 |
| Cc1noc(Cl)c1CCC(=O)N1CCN(c2ncccn2)CC1 | -7.01 |
| COc1ccccc1CNC(=O)N1CCCC(c2nncn2C)C1 (stereo unspecified) | -2.85 |
| CCOc1ccccc1C(=O)NS(=O)(=O)c1ccc2c(c1)OCCCO2 | -4.55 |
| Cc1nnc2n1CCN(CCC(=O)Nc1sccc1C#N)C2 | -12.9 |
| CCc1nnc2n1CCN(CC(=O)Nc1sccc1C#N)C2 | -9.93 |
| COc1ccc(CNC(=O)NCc2c(C)cc(C)[nH]c2=O)cc1 | -11.9 |
| Cc1cnn(C2CN(CC(=O)Nc3cccnc3)C2)c1 | -9.68 |
| COc1ccc(CCC(=O)NC2CCC(O)CC2)cc1OC (stereo unspecified) | -4.91 |

| SMILES | cytotoxicity at 70.5 h [%] |
| --- | --- |
| Cc1cnn(C2CN(CC(=O)NCCc3ccccc3)C2)c1 | -16.2 |
| Cn1cc(C2CCCN2C(=O)c2ccc(Br)o2)cn1 (stereo unspecified) | -10.2 |
| CC(C)c1cc(NC(=O)CN2CCCC2Cn2cccn2)on1 (stereo unspecified) | -1.57 |
| Cn1cnc2c1CCN(Cc1nc(Cc3ccccc3)no1)C2 | -3.21 |
| CC(C(=O)NCCN1CCCCCC1)n1cncn1 (stereo unspecified) | -0.492 |
| O=C(CN1CCCC(Cn2cncn2)C1)NCc1ccco1 (stereo unspecified) | -15.8 |
| COCCCNC(=O)N1CCCC(c2nncn2C)C1 (stereo unspecified) | -12.4 |
| Cc1nn(C)c(C)c1C1CCCN1Cc1noc(C2CC2)n1 (stereo unspecified) | 7.14 |
| Cc1nccn1-c1cc(CNC(=O)CCC2CCCO2)ccn1 (stereo unspecified) | 43.5 |
| CCc1nc(C(=O)N2CCN(C)CC2C)nn1-c1ccccc1Cl (stereo unspecified) | 23.5 |
| CCc1noc(C)c1C(=O)N1CCCC1Cn1cc(C)cn1 (stereo unspecified) | 25.2 |
| CC(C)c1nn(C)c(N2CCOCC2)c1CNC(C)c1cccs1 (stereo unspecified) | -1.47 |
| Cc1nccc(-c2cccc(NCC(=O)N3CCc4sccc4C3)c2)n1 | 2.9 |
| Cc1nccc(-c2cccc(NCC(=O)N3CCNC3=O)c2)n1 | -0.295 |
| O=C(CCC1CCCO1)NCc1ccnc(-n2cccn2)c1 (stereo unspecified) | 23.5 |
| Cc1ncsc1C(=O)NC1CCN(CC(=O)N(C)c2ccccc2)CC1 | -1.98 |
| Cc1ncsc1C(=O)NC1CCN(CC(=O)NCc2ccccc2)CC1 | 2.21 |
| Cc1noc(C)c1CN(C)C(=O)c1ccc(NC2CC2)nc1 | 0.339 |
| CC(NC(=O)CSCC#N)c1cccc(NC(=O)c2ccccc2)c1 (stereo unspecified) | 10.4 |
| Cc1cc(C)c(CNC(=O)NCC(O)COc2ccccc2)c(=O)[nH]1 (stereo unspecified) | 21.6 |
| CC(C)c1nn(C)c(N(C)C)c1CNCc1ccc2c(c1)OCO2 | 2.49 |
| CC(C)c1nn(C)c(N2CCOCC2)c1CN[C@H](C)CO | -1.16 |
| CC(CCc1ccco1)NC(=O)Nc1cc(C(F)(F)F)c[nH]c1=O (stereo unspecified) | 0.203 |
| CCN1CCN(C(=O)c2nc(C)n(-c3ccccc3Cl)n2)CC1 | 7.74 |

| SMILES | cytotoxicity at 70.5 h [%] |
| --- | --- |
| CCc1noc(C)c1C(=O)N1CCCC1Cn1nc(C)cc1C (stereo unspecified) | -3.58 |
| CC(=O)Nc1nc(C(=O)N2CCCC(n3ccnc3)C2)cs1 (stereo unspecified) | -0.488 |
| COCCc1noc(CN2CCc3nn(C(C)C)c(=O)cc3C2)n1 | 32.4 |
| CN(Cc1ccc(Cl)s1)C(=O)NCc1nnc2n1CCC2 | 2.59 |
| CC(=O)NC1CCCN(C(=O)NCc2ccc(-c3ccn[nH]3)cc2)C1 (stereo unspecified) | 3.22 |
| CC(C)(C)c1ncc(C(=O)NCCNC(=O)c2ccccc2)s1 | 1.17 |
| Cc1[nH]nc2ncc(C(=O)N3CCN(CC(C)C)CC3)cc12 | 11.9 |
| CC(=O)N1CCCN(C(=O)NCc2cc[nH]n2)CC1 | 44.8 |
| O=C(CCc1cccs1)N1CCC(Nc2cccnn2)CC1 | 42.7 |
| O=C(CCCOc1ccc(F)cc1F)N1CCCC1Cn1cccn1 (stereo unspecified) | 1.98 |
| Cc1ccc(NS(=O)(=O)c2cc3c(c(C(=O)O)c2)OCCO3)c(F)c1 | 44.6 |
| Cc1ccccc1NS(=O)(=O)c1cc2c(c(C(=O)O)c1)OCCO2 | 6.41 |
| COC(=O)c1ccc(N2CCN(CCN3CCOCC3)C(C)C2)cc1 (stereo unspecified) | -6.62 |
| COC1CCN(C(=O)CCc2c(C)nc3ccnn3c2C)CC1 | -0.665 |
| CC(Cn1cccn1)NCc1nc(-c2cccc(Cl)c2)no1 (stereo unspecified) | 7.24 |
| CC(Cn1cccn1)NCc1nc(-c2cccs2)no1 (stereo unspecified) | 3.96 |
| Cc1nn(C)c(C)c1CC(=O)N1CCCC(n2cccn2)C1 (stereo unspecified) | -2.45 |
| CC(C)c1noc(C(C)N2CCN(Cc3ccccc3C#N)CC2)n1 (stereo unspecified) | 2.84 |
| CNC(=O)c1ccc(C(=O)N2CCCC2c2cnn(C)c2)cn1 (stereo unspecified) | 1.99 |
| Cc1nc(CN2CCc3nn(C(C)C)c(=O)cc3C2)oc1C | 4.51 |
